Entries after “also recorded” stand apart in the source; their conditions may differ.
Columns and labels:
LUHMES neurons = assay: MTT assay, annonacin-treated LUHMES neurons; assay type: cell-based, human; conditions: annonacin + PERK activator 200 nM or PERK inhibitor 300 nM, 48 h, vs no PERK modulator
Protocol: (§1) Nunc™ Nunclon™ Delta 6-well (for protein and mRNA) or 48-well (for cell assays) plates (Thermo Fisher Scientific, Waltham, Mass., USA) were coated with 100 μg/ml poly-L-lysine (Sigma-Aldrich, St. Louis, Mo., USA) and 5 μg/ml fibronectin (Sigma-Aldrich). LUHMES (Lund Human Mesencephalic) cells, derived from human embryonic ventral mesencephalic cells by conditional immortalization (Tet-off v-myc over-expression) were seeded out in a concentration of 130,000 cells/cm^2 to achieve a confluence of 50%. They were then differentiated for 8 days in a medium of DMEM/F12 (Sigma-Aldrich), 1 μg/ml tetracycline, […] and 490 μg/ml dbcAMP into post-mitotic neurons with a dopaminergic phenotype (Lotharius et al. 2005).
For all experiments with annonacin, the medium was replaced during the intoxication period with new medium containing glucose levels reduced to 250 μM, i.e. the physiological concentration in the human brain.
Thiazolyl Blue Tetrazolium […] (MTT) (Sigma Aldrich) was dissolved in sterile PBS to a concentration of 5 mg/ml. This stock solution was added to the cells in culture medium to achieve a final concentration of 0.5 mg/ml. The 48-well culture plate was then incubated at 37° C. for 1 h, the medium removed completely and frozen at −80° C. for 1 h. The plate was then thawed, 300 μl DMSO (AppliChem, Darmstadt, Germany) was added per well and the plate was shaken to ensure complete dissolution of the violet crystals. 100 μl from each well were transferred to a new 96-well plate and the absorbance was read with the FLUOstar Omega (BMG Labtech) platereader at a wavelength of 590 nm (reference wave length 630 nm). The data was analyzed using the MARS Data Analysis Software (BMG Labtech) and Prism 6.

[1] = tested on: LUHMES neurons overexpressing 4R-tau; assay: ATP assay, LUHMES neurons overexpressing 4R-tau; assay type: cell-based, human; conditions: lentiviral 4R-tau overexpression 10 days, co-administration of PERK modulator
Protocol: as §1, with “2005). […]” for “2005).”
Concentrated lentiviral particles were titrated by transducing LUHMES cells with different dilutions at 6 hours after initiating differentiation. The lowest dilution at which at least 90% of cells expressed the transgene (as determined by immunohistochemistry of the cells fixed on day 2 post differentiation) was chosen for subsequent experiments. […]
ATP assays were conducted using the ViaLight™ plus kit by Lonza according to the manufacturer's instructions. Luminescence was read with the FLUOstar Omega (BMG Labtech) platereader. The data was analyzed using the MARS Data Analysis Software (BMG Labtech) and Prism 6.

PERK = biological target: T1, PERK (Homo sapiens, UniProt Q9NZJ5); assay: Western blot for pEIF2A and pNRF2, lentiviral 3R/4R-tau overexpression model; assay type: cell-based; design: endogenous in cells; host or cells: LUHMES neurons (differentiated, human); in A5 transduced with lentivirus for 3R-/4R-tau or mCherry, not for PERK; conditions: for pNRF2 level: 4R-tau overexpressing cells, PERK activator 200 nM or PERK inhibitor 300 nM; for effect on pEIF2A and pNRF2: lentiviral 3R-tau overexpression
T1 sequence (Q9NZJ5 30-1116): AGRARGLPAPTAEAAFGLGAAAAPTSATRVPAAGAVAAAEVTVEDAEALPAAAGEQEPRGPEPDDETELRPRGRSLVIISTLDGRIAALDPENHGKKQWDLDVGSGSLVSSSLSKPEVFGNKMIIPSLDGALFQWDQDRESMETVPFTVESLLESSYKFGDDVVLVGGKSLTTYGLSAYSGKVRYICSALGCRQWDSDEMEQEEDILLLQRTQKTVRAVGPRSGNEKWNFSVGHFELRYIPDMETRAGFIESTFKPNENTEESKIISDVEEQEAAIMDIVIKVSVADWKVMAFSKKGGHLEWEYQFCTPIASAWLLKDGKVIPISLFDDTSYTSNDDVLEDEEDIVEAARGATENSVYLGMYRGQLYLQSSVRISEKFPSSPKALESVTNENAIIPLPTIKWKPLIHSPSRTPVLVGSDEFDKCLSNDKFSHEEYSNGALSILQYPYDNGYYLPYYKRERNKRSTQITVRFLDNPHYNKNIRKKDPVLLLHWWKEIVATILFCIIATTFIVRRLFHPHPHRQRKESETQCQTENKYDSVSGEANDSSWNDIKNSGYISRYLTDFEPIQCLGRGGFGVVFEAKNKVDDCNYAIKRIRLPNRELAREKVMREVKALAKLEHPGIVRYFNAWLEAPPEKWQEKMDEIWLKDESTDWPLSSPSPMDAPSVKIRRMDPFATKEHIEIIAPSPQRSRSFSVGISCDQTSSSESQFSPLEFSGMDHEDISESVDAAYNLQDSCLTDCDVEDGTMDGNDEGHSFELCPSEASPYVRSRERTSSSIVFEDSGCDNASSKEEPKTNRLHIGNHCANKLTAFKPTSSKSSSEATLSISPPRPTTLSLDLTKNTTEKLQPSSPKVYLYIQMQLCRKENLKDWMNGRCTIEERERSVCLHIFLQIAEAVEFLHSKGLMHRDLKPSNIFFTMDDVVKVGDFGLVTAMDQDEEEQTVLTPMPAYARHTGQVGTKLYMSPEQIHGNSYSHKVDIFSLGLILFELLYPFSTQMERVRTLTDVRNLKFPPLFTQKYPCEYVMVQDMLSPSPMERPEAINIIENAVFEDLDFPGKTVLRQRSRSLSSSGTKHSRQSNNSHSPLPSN

| SMILES | MTT test, effect of co-treatment (LUHMES neurons) | 4R-specific toxicity in ATP assay [1] | pNRF2 level (PERK) | pEIF2A level (PERK; lentiviral 3R or 4R-tau overexpression, PERK activator 200 nM) | effect on pEIF2A and pNRF2 (PERK) | pEIF2A level (PERK; 4R-tau overexpression, PERK inhibitor 300 nM) |
| --- | --- | --- | --- | --- | --- | --- |
| CCN(CC)CCC(=O)N1N=C(c2c(-c3ccccc3)c3cc(Br)ccc3[nH]c2=O)CC1c1ccc(Br)cc1 (stereo not shown) [CCT020312, 6-bromo-3-[5-(4-bromo-phenyl)-1-(3-diethylamino-propionyl)-4,5-dihydro-1H-pyrazol-3-yl]-4-phenyl-1H-quinolin-2-one] | significant improvement | reduced significantly | significantly increased | did not increase | no significant effect | – |
| Cn1cc(-c2ccc3c(c2)CCN3C(=O)Cc2cccc(C(F)(F)F)c2)c2c(N)ncnc21 [GSK2606414, reference compound] | did not significantly improve; also recorded: never significant | provided protection in the ATP assay, but to a lesser extent | not pNRF2 | – | no significant effect | decreased |
